Laboratory results: patent publication US20110124564A1, “NUCLEOLIN-BINDING PEPTIDES, NUCLEOLIN- BINDING LYTIC PEPTIDES, FUSION CONSTRUCTS AND METHODS OF MAKING AND USING SAME” (ESPERANCE PHARMACEUTICALS, INC., published 2011)
Read-outs that look alike come from different tables or passages of the source. Residues, ends and D or L forms follow the SMILES beside them.

Legend:
[1] = tested on: MDA-MB-435S breast cancer cells; assay type: cell-based, human; settings: 6 h
Description: EP-301 and EP-302 were analyzed for anti-cancer activity in vitro in a time course experiment against MDA-MB-435S breast cancer cells. EP-301 and EP-302 were freshly dissolved in saline and added into cancer cell seeded multi-well plates at increasing concentrations of 0, 0.001, 0.01, 0.1, 1, 2, 5, 10 and 100 μM. Incubations were conducted for 0.25, 0.5, 1, 2, 4, 6 h or 24 h at 37° C. Cell viability was determined using formazan conversion assays (MTT assays). Controls were treated with USP saline or 0.1% TritonX-100™ as reference for 0 and 100% cell death, respectively. Cytotoxicity was evaluated as an IC50 value derived for EP-301 and EP-302 at each time point.

[2] = tested on: MDA-MB-435S breast cancer cells; assay type: cell-based, human; settings: 4 h
Description: Twelve different fusion constructs were analyzed for anti-cancer activity in vitro against MDA-MB-435S breast cancer cells and for hemolytic activity in vitro to human red blood cells. Fusion constructs of the following sequence were tested:
(§1) The peptide conjugates were freshly dissolved in saline and added into cancer cell seeded multi-well plates at increasing concentrations of 0, 0.001, 0.01, 0.1, 1, 2, 5, 10 and 100 μM. Incubations were conducted for 4 h at 37° C. Cell viability was determined using formazan conversion assays (MTT assays). Controls were treated with USP saline or 0.1% TritonX-100™ as reference for 0 and 100% cell death, respectively. Cytotoxicity was evaluated as an IC50 value.

[3] = tested on: human red blood cells; assay: Hemolytic activity; assay type: cell-based
Description: Hemolytic activity was studied by incubating the fusion constructs with human red blood cells at concentrations of 0.01, 0.1, 1, 10 and 50 μM for 2 hours. Saline and 0.1% Triton served as controls.
Hemolytic activity of the compounds was studied by incubating EP-301 and EP-302 with human red blood cells at concentrations of 0.01, 0.1, 1, 10 and 50 μM for 2 hours.

[4] = tested on: HL60 (Acute Myeloid Leukemia); assay type: cell-based, human; settings: 24 h
Description: as §1, with “EP-302 was” for “The peptide conjugates were”, “6 h or 24” for “4”, “value derived for EP-302 in each cell line.” for “value.”

[5] = tested on: MDA-MB-435S (Breast); assay type: cell-based, human
Description: as §1, with “EP-302 was” for “The peptide conjugates were”, “6 h or 24” for “4”, “value derived for EP-302 in each cell line.” for “value.”

[6] = tested on: MiaPaCa (Pancreas); assay type: cell-based, human
Description: as §1, with “EP-302 was” for “The peptide conjugates were”, “6 h or 24” for “4”, “value derived for EP-302 in each cell line.” for “value.”

[7] = tested on: PC-3 (Prostate); assay type: cell-based, human
Description: as §1, with “EP-302 was” for “The peptide conjugates were”, “6 h or 24” for “4”, “value derived for EP-302 in each cell line.” for “value.”

[8] = tested on: A549 (Lung); assay type: cell-based
Description: as §1, with “EP-302 was” for “The peptide conjugates were”, “6 h or 24” for “4”, “value derived for EP-302 in each cell line.” for “value.”

[9] = tested on: CHO (Hamster Ovary); assay type: cell-based
Description: as §1, with “EP-302 was” for “The peptide conjugates were”, “6 h or 24” for “4”, “value derived for EP-302 in each cell line.” for “value.”

[10] = tested on: DU145 (Prostate); assay type: cell-based
Description: as §1, with “EP-302 was” for “The peptide conjugates were”, “6 h or 24” for “4”, “value derived for EP-302 in each cell line.” for “value.”

[11] = tested on: Daudi (NHL); assay type: cell-based
Description: as §1, with “EP-302 was” for “The peptide conjugates were”, “6 h or 24” for “4”, “value derived for EP-302 in each cell line.” for “value.”

[12] = tested on: HT 116(Colon); assay type: cell-based
Description: as §1, with “EP-302 was” for “The peptide conjugates were”, “6 h or 24” for “4”, “value derived for EP-302 in each cell line.” for “value.”

[13] = tested on: HT 29 (Colon); assay type: cell-based; settings: 6 h
Description: as §1, with “EP-302 was” for “The peptide conjugates were”, “6 h or 24” for “4”, “value derived for EP-302 in each cell line.” for “value.”

[14] = tested on: K562 (Chronic Myeloid Leukemia); assay type: cell-based; settings: 24 h
Description: as §1, with “EP-302 was” for “The peptide conjugates were”, “6 h or 24” for “4”, “value derived for EP-302 in each cell line.” for “value.”

[15] = tested on: LoVo (Colon); assay type: cell-based; settings: 6 h
Description: as §1, with “EP-302 was” for “The peptide conjugates were”, “6 h or 24” for “4”, “value derived for EP-302 in each cell line.” for “value.”

[16] = tested on: MCF-10A (normal breast cells); assay type: cell-based; settings: 24 h
Description: as §1, with “EP-302 was” for “The peptide conjugates were”, “6 h or 24” for “4”, “value derived for EP-302 in each cell line.” for “value.”

[17] = tested on: MCF-7 (Breast); assay type: cell-based
Description: as §1, with “EP-302 was” for “The peptide conjugates were”, “6 h or 24” for “4”, “value derived for EP-302 in each cell line.” for “value.”

[18] = tested on: MDA-MB-231 (Breast); assay type: cell-based
Description: as §1, with “EP-302 was” for “The peptide conjugates were”, “6 h or 24” for “4”, “value derived for EP-302 in each cell line.” for “value.”

[19] = tested on: MV4-11(Acute Myeloid Leukemia); assay type: cell-based; settings: 24 h
Description: as §1, with “EP-302 was” for “The peptide conjugates were”, “6 h or 24” for “4”, “value derived for EP-302 in each cell line.” for “value.”

[20] = tested on: NIH-3T3 (mouse fibroblast cells); assay type: cell-based; settings: 24 h
Description: as §1, with “EP-302 was” for “The peptide conjugates were”, “6 h or 24” for “4”, “value derived for EP-302 in each cell line.” for “value.”

[21] = tested on: OVCAR-3 (Ovary); assay type: cell-based; settings: 6 h
Description: as §1, with “EP-302 was” for “The peptide conjugates were”, “6 h or 24” for “4”, “value derived for EP-302 in each cell line.” for “value.”

[22] = tested on: SKOV-3 (Ovary); assay type: cell-based
Description: as §1, with “EP-302 was” for “The peptide conjugates were”, “6 h or 24” for “4”, “value derived for EP-302 in each cell line.” for “value.”

[23] = In vivo tolerability, repeat dose, nude mice; parameters: species or system mouse; settings: 5 consecutive days; for Survival [%] Day 1 / Survival [%] Day 2* / Survival [%] Day 3 / Survival [%] Day 4 / Survival [%] Day 5: BalbC/nude mice
Description: Body weight, blood chemistry and blood cell counts were measured. […] Blood parameters for CBC and serum chemistry were normal in treated mice of both groups.

[24] = 5 and 10 mg/kg i.v., female nude mice

CC(C)C[C@H](NC(=O)[C@H](CCCNC(=N)N)NC(=O)[C@H](C)NC(=O)[C@H](CO)NC(=O)[C@H](CCCNC(=N)N)NC(=O)[C@H](CCCNC(=N)N)NC(=O)[C@H](CCC(N)=O)NC(=O)[C@H](CC(C)C)NC(=O)[C@H](CCCNC(=N)N)NC(=O)[C@H](C)NC(=O)[C@H](CCCNC(=N)N)NC(=O)[C@H](CCCCN)NC(=O)[C@H](C)NC(=O)[C@H](Cc1ccccc1)NC(=O)[C@H](CCCCN)NC(=O)[C@H](CCCCN)NC(=O)[C@H](C)NC(=O)[C@H](Cc1ccccc1)NC(=O)[C@H](CCCCN)NC(=O)[C@H](C)NC(=O)[C@H](Cc1ccccc1)NC(=O)[C@H](CCCCN)NC(=O)[C@H](CCCCN)NC(=O)[C@H](C)NC(=O)[C@H](Cc1ccccc1)NC(=O)[C@H](CCCCN)NC(=O)[C@H](C)NC(=O)[C@H](Cc1ccccc1)NC(=O)[C@@H](N)CCCCN)C(=O)N[C@@H](CO)C(=O)N[C@@H](C)C(=O)N[C@@H](CCCCN)C(=O)O [EP-302] (H-KFAKFAKKFAKFAKKFAKRARLQRRSARLSAK-OH)
IC50 [1]: 2.3 µM
IC50 [2]: 0.9 ± 0.05 µM
HA50 [3]: Not hemolytic
IC50 [4]: 0.5 µM
IC50 ([5]; 6 h): 1.4 ± 0.09 µM
IC50 ([5]; 24 h): 1.7 ± 0.2 µM
IC50 ([6]; 6 h): 2.1 ± 0.2 µM
IC50 ([6]; 24 h): 1.9 ± 0.1 µM
IC50 ([7]; 6 h): 3.3 ± 0.3 µM
IC50 ([7]; 24 h): 3.2 ± 0.8 µM
IC50 ([8]; 6 h): 4.3 ± 0.6 µM
IC50 ([8]; 24 h): 2.4 ± 0.08 µM
IC50 ([9]; 6 h): 3.1 ± 0.9 µM
IC50 ([9]; 24 h): 3.7 ± 0.2 µM
IC50 ([10]; 6 h): 3.1 ± 0.02 µM
IC50 ([10]; 24 h): 5.1 ± 0.1 µM
IC50 ([11]; 6 h): 3.2 ± 0.4 µM
IC50 ([11]; 24 h): 2.5 ± 0.05 µM
IC50 ([12]; 6 h): 6.7 ± 0.9 µM
IC50 ([12]; 24 h): 4.8 ± 1.1 µM
IC50 [13]: 45.8 ± 0.4 µM
IC50 [14]: 2.8 µM
IC50 [15]: 14.1 ± 0.5 µM
IC50 [16]: 68 µM
IC50 ([17]; 6 h): 5.5 ± 0.4 µM
IC50 ([17]; 24 h): 6.4 ± 0.9 µM
IC50 ([18]; 6 h): 4.6 ± 0.9 µM
IC50 ([18]; 24 h): 3.6 ± 0.4 µM
IC50 [19]: 0.5 µM
IC50 [20]: 53 µM
IC50 [21]: 5.2 ± 0.3 µM
IC50 ([22]; 6 h): 5.1 ± 0.2 µM
IC50 ([22]; 24 h): 5.2 ± 0.9 µM
Survival [%] Day 1 ([23]; 5 mg/kg i.v.): 100 (5/5) %
Survival [%] Day 2* ([23]; 5 mg/kg i.v.): 100 (5/5) %
Survival [%] Day 3 ([23]; 5 mg/kg i.v.): 100 (5/5) %
Survival [%] Day 4 ([23]; 5 mg/kg i.v.): 100 (5/5) %
Survival [%] Day 5 ([23]; 5 mg/kg i.v.): 100 (5/5) %
Survival [%] Day 1 ([23]; 10 mg/kg i.v.): 100 (5/5) %
Survival [%] Day 2* ([23]; 10 mg/kg i.v.): 100 (5/5) %
Survival [%] Day 3 ([23]; 10 mg/kg i.v.): 100 (5/5) %
Survival [%] Day 4 ([23]; 10 mg/kg i.v.): 100 (5/5) %
Survival [%] Day 5 ([23]; 10 mg/kg i.v.): 100 (5/5) %
Blood parameters for CBC and serum chemistry [23, 24]: normal
Body weight [23, 24]: remained stable
Signs of toxicity / tolerability [23, 24]: no signs of toxicity
